Reference: patent publication US20020128295A1, “Use of pyridoxamine for the treatment and inhibition of obesity-related complications” (priority 2000, published 2002)
Marks after values point to notes of the source that are not given here.

Key:
[1] = system: streptozotocin (STZ)-induced diabetic rat; conditions: earlier study, cited from earlier work
[2] = system: Zucker obese (fa/fa) rats; experiment: Glycation (fructoselysine) of skin collagen by SIM-GC/MS; format: in vivo, rat; conditions: insoluble skin collagen
Experimental: (§1) All experiments were carried out in accordance with the regulations of the Institutional Animal Care and Use Committee of the University of South Carolina. Female Zucker obese (fa/fa) rats 6 weeks old, (n=14) and lean (LN) littermates (Fa/fa), also 6 weeks old (n=7) were purchased from Charles River Laboratories (Wilmington, Mass.). The fa/fa rats were divided randomly into two groups of 7 each, untreated fatty control (FC) and PM-treated (FPM) animals, the latter group receiving 2 g PM/L in the drinking water. […] All animals were housed individually with a light dark cycle of 12 hours each, and had free access to food and water. The insoluble fraction of skin collagen was prepared by scraping the skin with a single-edged razor blade to remove hair and adventitious tissue, followed by a series of extractions with 0.5 M NaCl, 0.5 M acetic acid and chloroform/methanol (2:1 v/v), as described previously (Dyer et al., J. Clin. Invest. 91:2463-2469 (1993)). Fructoselysine (FL), a measure of glycation of collagen, and CML, CEL, MDA-lysine and HNE-lysine were assayed by isotope dilution, selected ion monitoring gas chromatography—mass spectrometry (SIM-GC/MS), and pentosidine by RP-HPLC, all as described previously (Requena et al., Biochem. J. 322:317-325 (1997)). Levels of AGEs/ALEs were expressed relative to the FL content of the collagen in order to correct for differences in mean age of the protein (see Table 1 and Discussion, below). Collagen fluorescence (Ex=370 nm, Em=440 nm) was measured after solubilization with pepsin (20 μg/mL in 0.5 M acetic, 24 hr at 37° C.), and was normalized to the hydroxyproline content of the collagen, measured as described by Stegemann and Stalder (Clin. Chim. Acta 18:267-273 (1967)).

[3] = system: Zucker obese (fa/fa) rats; experiment: Dyslipidemia: plasma triglycerides and total cholesterol; format: in vivo, rat
Experimental: (§2) All experiments were carried out in accordance with the regulations of the Institutional Animal Care and Use Committee of the University of South Carolina. Female Zucker obese (fa/fa) rats 6 weeks old, (n=14) and lean (LN) littermates (Fa/fa), also 6 weeks old (n=7) were purchased from Charles River Laboratories (Wilmington, Mass.). The fa/fa rats were divided randomly into two groups of 7 each, untreated fatty control (FC) and PM-treated (FPM) animals, the latter group receiving 2 g PM/L in the drinking water. […] All animals were housed individually with a light dark cycle of 12 hours each, and had free access to food and water. Blood was obtained from the tail vein, using heparinized microhematocrit tubes, and plasma recovered by centrifugation at 4° C. All assays for proteins and metabolites in plasma and urine were performed by microplate adaptations of current methods, using a Wallac Victor Model 1420 multilabel plate reader (Wallac, Inc., Gaithersburg, Md.). […] Plasma glucose was measured using the Trinder assay Kit (Sigma #315) and total glycated hemoglobin (GlcHb) by boronate affinity chromatography (Sigma kit #442-B). Total plasma triglycerides and cholesterol were analyzed by enzymatic, calorimetric, end-point assays using Sigma kits for triglycerides (#37, GPO Trinder) and total cholesterol (#352). Insulin was measured using a direct sandwich ELISA for rat insulin (ALPCO, Windham, N.H.). Plasma PM concentration was measured by reverse phase high performance liquid chromatography (RP-HPLC) with fluorescence detection, using 293/393 nm excitation and emission wavelengths.

[4] = system: Zucker obese (fa/fa) rats; experiment: Fasting plasma insulin (ELISA); format: in vivo, rat
Experimental: as §2, with “Blood was obtained from the tail vein, using heparinized microhematocrit tubes, and plasma recovered by centrifugation at 4° C.” left out, “Plasma PM concentration was measured by reverse phase high performance liquid chromatography (RP-HPLC) with fluorescence detection, using 293/393 nm excitation and emission wavelengths.” left out

[5] = system: Sprague-Dawley and Zucker rats; conditions: rat, in vivo
Experimental: (§3) All experiments were carried out in accordance with the regulations of the Institutional Animal Care and Use Committee of the University of South Carolina. Female Zucker obese (fa/fa) rats 6 weeks old, (n=14) and lean (LN) littermates (Fa/fa), also 6 weeks old (n=7) were purchased from Charles River Laboratories (Wilmington, Mass.). The fa/fa rats were divided randomly into two groups of 7 each, untreated fatty control (FC) and PM-treated (FPM) animals, the latter group receiving 2 g PM/L in the drinking water. […] All animals were housed individually with a light dark cycle of 12 hours each, and had free access to food and water.

[6] = system: Zucker obese (fa/fa) rats; experiment: Chemical modifications (AGE/ALEs) and fluorescence in skin collagen; format: in vivo, rat
Experimental: as §1

[7] = system: Zucker obese (fa/fa) rats; experiment: Vascular changes in aorta and coronary arteries at necropsy; format: in vivo, rat
Experimental: All experiments were carried out in accordance with the regulations of the Institutional Animal Care and Use Committee of the University of South Carolina. Female Zucker obese (fa/fa) rats 6 weeks old, (n=14) and lean (LN) littermates (Fa/fa), also 6 weeks old (n=7) were purchased from Charles River Laboratories (Wilmington, Mass.). The fa/fa rats were divided randomly into two groups of 7 each, untreated fatty control (FC) and PM-treated (FPM) animals, the latter group receiving 2 g PM/L in the drinking water. […] All animals were housed individually with a light dark cycle of 12 hours each, and had free access to food and water. Blood was drawn from anaesthetized (isoflurane) rats by heart puncture and transferred into heparinized vacutainer tubes on ice. Plasma was separated from whole blood within 30 min by centrifugation in a refrigerated benchtop centrifuge; aliquots of plasma were stored at −70° C. until time of analysis. Rats were then killed by over-anesthetization, and liver and kidneys were removed, and both organs rinsed in phosphate buffered saline, and weighed. One kidney was cut in half transversely, and one half was removed for fixation (buffered formalin) for light microscopy. The remaining kidney and liver samples were frozen at −70° C. […]

[8] = system: Zucker obese (fa/fa) rats; experiment: Systolic blood pressure by tail cuff plethysmography; format: in vivo, rat; conditions: initial 125-130 mm Hg at week 5; FC rose to 165 mm Hg
Experimental: as §3, with “and water. Blood pressure measurements were initiated at week 5 in the experiment after acclimating the animals to the apparatus, and were carried out the week following blood and urine collection. Measurements were made by tail cuff plethysmography using a Kent Scientific XBP instrument.” for “and water.”

[9] = system: Zucker obese (fa/fa) rats; experiment: Renal function: urinary protein, albumin, plasma creatinine, urine volume; format: in vivo, rat
Experimental: All experiments were carried out in accordance with the regulations of the Institutional Animal Care and Use Committee of the University of South Carolina. Female Zucker obese (fa/fa) rats 6 weeks old, (n=14) and lean (LN) littermates (Fa/fa), also 6 weeks old (n=7) were purchased from Charles River Laboratories (Wilmington, Mass.). The fa/fa rats were divided randomly into two groups of 7 each, untreated fatty control (FC) and PM-treated (FPM) animals, the latter group receiving 2 g PM/L in the drinking water. […] All animals were housed individually with a light dark cycle of 12 hours each, and had free access to food and water. Progression of renal disease was assessed by measurements of plasma creatinine and urinary albumin and total urinary protein. Plasma creatinine concentration was measured by the Jaffe picric acid procedure, using Sigma kit #555-A. For urine collections, rats were housed in metabolic rat cages for 24 hr with free access to food and water. Several drops of toluene were added to the urine collection beaker to inhibit microbial growth. Urinary albumin was quantified by an ELISA assay. Rabbit antiserum to rat albumin and horseradish peroxidase (HRP)-conjugated goat anti-rabbit IgG were purchased from ICN Biomedical Research Products, Costa Mesa, Calif. Briefly, wells were coated with 50 ng of rat albumin (Sigma, St. Louis) in 0.1 M sodium carbonate buffer, pH 10.4, overnight at 4° C. […] After washing, horseradish peroxidase-conjugated goat anti-rabbit IgG (200 μL) was applied for 1 h at 25° C. with shaking, and the plate was developed with 200 μL of ABTS-reagent (2,2′-azino-bis(3-ethylbenzthiazoline-6-sulfonic acid) for 45 min at room temperature. Absorbance was measured at 405 nm. Total urinary protein was measured using the Sigma Microprotein-PR Kit. Based on preliminary experiments in which known amounts of PM were added to urine, PM increased the final absorbance readings in the protein assay, so that a correction (<10%) was applied for the PM content of the urine.

[10] = system: Zucker obese (fa/fa) rats; experiment: Plasma glucose and total glycated hemoglobin (glycemic control); format: in vivo, rat; conditions: for Plasma glucose: mean ± SD, 7 animals
Experimental: as §2

[11] = system: advanced lipoxidation end-products (ALEs); conditions: lipid peroxidation reactions in vitro; cited from earlier work
[12] = Week 0, 2 g PM/L in drinking water
[13] = Week 16, 2 g PM/L in drinking water
[14] = Week 32, 2 g PM/L in drinking water

## Cc1ncc(CO)c(CN)c1O [PM, Pyridoxamine]
[1]; STZ-induced diabetic rat
  Albuminuria and plasma creatinine: marked reduction in albuminuria and plasma creatinine
  Development of renal disease: significantly inhibited the development of renal disease
  Effect on glycemic control: no effect on glycemic control
[1]; STZ-rat
  Reduction in hyperlipidemia: > 50%
[2]; Week 0
  Glycation of Skin Collagen FL: 3.5 ± 0.2 mmol/mol lysine
[2]; Week 11
  Glycation of Skin Collagen FL: 3.0 ± 0.1 mmol/mol lysine
[2]; Week 32
  Glycation of Skin Collagen FL: 2.3 ± 0.3 mmol/mol lysine
[3]; FC rats approximately 250 mg/dL
  Plasma cholesterol: ~150 mg/dL
[3]; after 10 weeks
  Plasma triglycerides relative to the level in LN animals: about three
  Plasma triglycerides relative to the values observed in FC animals: less than 50%
[3]; fa/fa rat
  Effect on dyslipidemia, both triglycerides and cholesterol: significantly reduced dyslipidemia
[3]; rat, in vivo
  Plasma cholesterol, higher than in LN animals: ~50%
[4]; 32 weeks
  Fasting plasma insulin: 7.3 ± 0.6 µg/L
[4]; fa/fa animals
  Effect on insulin resistance: did not significantly affect insulin resistance
[5]
  Tolerability of the dose: well tolerated
[6]; 8 months
  HNE-lysine detectability in skin collagen: not detectable
[6]; 8 months, in 3 of 7 animals
  MDA-lysine trace amounts in skin collagen: < 2 μmol/mol FL
[6]; Week 32
  MDA-Lys in skin collagen: Trace
[6]; Week 32, necropsy samples, Ex=370 nm, Em=440 nm
  Fluorescence of skin collagen: 0.05 ± 0.02 Arbitrary Units/mol FL
[6]; Week 32, of 7 animals
  Number of samples in which MDA-lysine was measurable: (3/7)^d
[6]; fa/fa rats
  Effect on increase in CML and CEL in skin collagen: inhibited the increase in CML and CEL
[6]; necropsy samples, FC 2-fold higher than LN
  Effect on increase in Maillard-type collagen fluorescence: prevented this increase
[6]; through week 11
  Effect on increase in pentosidine in skin collagen: effective in limiting the increase in pentosidine
[6]; until 8 months
  MDA-lysine detectability in skin collagen: no MDA-lysine was detectable
[6]; week 32, p=0.07
  Significance of differences in pentosidine between FC and FPM rats: marginal
[7]
  Aorta compared with LN animals: indistinguishable from those of LN animals in all but one animal
  Changes in the aortic or coronary vasculature: minimal changes
[8]
  Systolic blood pressure course: remained at initial values
[9]; at any point in the study
  Difference in urine volume between FC and FPM animals: no significant differences in urine volume
[9]; end of the study
  Urinary volume: 27.0 mL/day
[9]; fa/fa rat, confirmed by plasma creatinine
  Effect on development of proteinuria: impressive protection against development of proteinuria
[10]; 32 week experiment
  Effect on glycemia: no effect on glycemia
[10]; [12]
  Glycated Hemoglobin: 6.8 ± 0.5%
  Plasma glucose: 6.8 ± 0.5 mM
[10]; [13]
  Glycated Hemoglobin: 6.5 ± 0.3%
  Plasma glucose: 6.9 ± 0.6 mM
[10]; [14]
  Glycated Hemoglobin: 6.8 ± 0.3%
  Plasma glucose: 6.8 ± 0.5 mM
[11]
  Inhibition of formation of advanced lipoxidation end-products (ALEs): potent inhibitor
